Measurements: patent US20200123127A1, “REMOVAL OF SENESCENCE-ASSOCIATED MACROPHAGES” (EVERON BIOSCIENCES, INC., priority 2016, published 2020)

Key:
[1] = tested on: p16(Ink4a) expression in SAMs; assay: p16(Ink4a) promoter-dependent luciferase activity in alginate bead-elicited macrophages (SAMs) ex vivo; format: cell-based, mouse; details: for IL-4-dependent increase in luciferase activity / p16(Ink4a) expression: IL-4 10 ng/mL, 72 hour; for Modulation of p16(Ink4a): SAMs: SAMs from NDF alginate beads, dose-response testing
Experimental: FIG. 7. Immunomodulatory regulation of p16(Ink4a) and SAβG in macrophages. Peritoneal lavage cells elicited by alginate-encapsulated SCs from p16^Ink4a/Luc mice were treated ex vivo with immunomodulatory agents for 72 hours. A) p16 promoter-dependent luciferase activity (black bars) and […] activity (via 4-MUG hydrolysis) (gray bars) were measured following treatment with M1- and M2-polarizing stimuli: LPS at 1 ng/mL, IFN-γ at 10 ng/mL, LPS/IFN-γ co-treatment, Poly(I:C) at 10 μg/mL, IFN-α at 100 U/mL, IL-4 at 20 ng/mL, IL-13 at 10 ng/ml, and IL-4/IL-13 co-treatment. Results are shown as the mean±standard deviation for at least 3 independent experiments, with statistical significance between treated compared to non-treated samples depicted. B) Dose-dependent response of JAK1/2 inhibitor Ruxolitinib on luciferase activity in elicited macrophages in the presence (gray bars) or absence (black bars) of IL-4 (10 ng/mL) stimulation. Enzyme activities are expressed as the percent activity relative to non-treated (NT) controls per cell. Statistical significance between IL-4 stimulated and non-stimulated cells at each concentration of ruxolitinib is shown.
(§1) FIG. 8. Immunomodulatory regulation of p16(Ink4a) and SAβG in macrophages. Peritoneal lavage cells elicited by alginate-encapsulated SCs from p16^Ink4a/Luc mice were treated ex vivo with immunomodulatory agents for up to 72 hours. (A) mRNA expression of p16(Ink4a) and β-galactosidase (Glb1) in macrophages (relative to B2m expression) with or without LPS stimulation for 72 hours analyzed via qRT-PCR, normalized to non-treated controls. (B) Microphotograph of SAβG-stained adherence-selected macrophages with or without stimulation with LPS (1 ng/mL) for 72 hours (10× objective). (C&D) Kinetics of p16(Ink4a) promoter-dependent luciferase activity per cell with or without LPS stimulation (C) or IL-4 stimulation (D), normalized to activity from non-treated cells at time zero. Results are shown as the mean±standard deviation for at least 3 experiments. Statistical significance with respect to non-treated control at time zero is indicated. (E) Luciferase activity and (3-galactosidase activity (via 4-MUG hydrolysis) from proteose peptone-elicited lavage cells following stimulation with IL-4 (20 ng/mL) for 72 hours, normalized to non-treated controls. (F) Viability following 72 hour dose-response to JAK1/2 inhibitor Ruxolitinib in the presence or absence of IL-4 (10 ng/mL) stimulation, measured by CyQuant Direct DNA-based viability assay. Viability normalized to respective controls lacking Ruxolitinib. (G&H) Dose-response of STAT6 inhibitor AS1517499 against luciferase activity (G) and viability via CyQuant Direct assay (H) following 72 hour treatment in the presence and absence of IL-4 (10 ng/mL). Results normalized to respective controls (with or without IL-4) lacking STAT6 inhibitor. Statistical significance is calculated with respect to the difference between IL-4 stimulated and non-stimulated cells at each concentration of STAT6 inhibitor. (I) Relative luciferase activity per cell following repolarization with M1- and M2-inducing agents. Macrophages were left non-treated (NT) or treated with either LPS (1 ng/ml) or IL-4 (20 ng/ml) for 72 hours (days 1-3), as indicated. For each treatment set, samples were collected at 72 hours (no further treatment; days 4-6=x). Alternatively, cells were washed and placed in fresh medium (−), medium containing LPS (1 ng/mL) and IFN-γ (10 ng/mL), or medium containing IL-4 (20 ng/mL) and IL-13 (10 ng/mL) and incubated for an additional 72 hours prior to sample collection (as indicated for days 4-6). Luciferase activity is expressed as the percent activity per cell relative to non-treated (NT) controls after the first 72 hours.
Luciferase activity of cell lysates was accessed using Bright-Glo™ Luciferase Assay System (Promega; Madison, Wis.) according to manufacturer's instructions with minor modifications. […]

SAMs = assay: SAM viability (CyQuant Direct / resazurin); format: cell-based, mouse; details: 72 hour; presence or absence of IL-4 10 ng/mL
Experimental: as §1
FIG. 10. Elevated p16(Ink4a) and β-galactosidase is regulated by immunomodulatory agents in macrophages, but not in mesenchymal SCs. Primary cultures of adipose-derived mesenchymal stromal cells (AdMSC) isolated from p16^Ink4a/Luc mice were irradiated (20 Gy) and cultured for 10 days for senescence induction. Mock irradiated cells were used as a proliferating cell control. Response of senescent and proliferating AdMSCs to immunomodulatory agents were compared to that of peritoneal lavage cells elicited by our alginate bead model. A-D) Dose-response curves of LPS (top panels: […]) and Poly(I:C) (bottom panels: C&D) on p16(Ink4a) promoter-dependent luciferase activity (left panels: A&C) and beta-galactosidase activity measured via 4-MUG hydrolysis (right panels: B&D) after 72 hr treatment. […]
FIG. 13. […] SAM viability was determined using the resazurin cell viability assay (Res). […]

[2] = tested on: p16(Ink4a) in mLF and mVAT fibroblasts; assay: Modulation of p16(Ink4a) in mouse lung and visceral adipose tissue-derived fibroblasts; format: cell-based; details: for Modulation of p16(Ink4a): mLF and mVAT Senescent: 20Gy irradiation for senescence induction; for Modulation of p16(Ink4a): mLF and mVAT Proliferating: without irradiation
Text: We next sought to determine whether immunomodulatory agents, and other small molecules, were capable of selectively modulating p16(Ink4a) expression in SAMs by comparing their effects on p16 expression in SAMs to that of mouse lung fibroblasts (mLF) and mouse visceral adipose tissue-derived fibroblasts (mVAT). […] Immunomodulatory agents cause little to no change in p16 expression in fibroblasts. For example, mouse fibroblasts are reported to respond to LPS and IL-4 (expressing TLR4 and IL-4R, respectively), yet these agents are unable to modulate p16 in fibroblasts.

[3] = tested on: chronologically aging mice; assay: Survival and frailty index of chronologically aging mice; format: in vivo, mouse
Experimental: FIG. 11. OT-82 effects on survival and frailty index of old mice. (A) Male and female mice were treated with OT-82 or with vehicle alone as a negative control. Survival was measured over the course of six treatments.
FIG. 12. Effects of asenins TA-3899 and TA-4812 on survival and frailty index of old mice. Results are provided on a background of FI of mice of the similar age, aged normally without any treatments (black color). Difference between FI of males receiving 3899 and intact mice is statistically significant (p=0.02).
Frailty Index (FI) was determined for individual mice as described previously (Antoch et al. Aging. 2017; 9: 1-12) using a 26 week-old group as a “young mouse” reference. For each mouse, various parameters were measured. These parameters include non-invasive measurements, including age, body weight, grip strength, diastolic blood pressure, and tail blood flow. Additional blood chemistry measurements were also determined, including white blood cell count, neutrophil count, neutrophil percentage, lymphocyte percentage, monocyte percentage, eosinophil percentage, red blood cell count, hemoglobin, hematocrit, mean corpuscular volume, mean corpuscular hemoglobin, mean corpuscular hemoglobin concentration, platelet count, and mean platelet volume. For each parameter mean value and standard deviation were calculated. Animals differing by more than one standard deviation (STDEV) from mean value in any single parameter were excluded from the reference group. Values for each measured parameter were compared with corresponding values for the reference group and assigned a score. The number of deficits an individual mouse expressed was calculated as a ratio of total number of parameters measured and this value is referred to as the frailty index.
Asenins TA-3899 and TA-4812 were evaluated for their effects on survival and frailty index in a model of chronologic aging mice. Treatment lasted for 20 weeks (weeks 77-97 of age). […] Frailty index of males was measured at week 109.

Row | IL-4-dependent increase in luciferase activity / p16(Ink4a) expression [1] | Compound | viability of macrophages (CyQuant Direct) (SAMs) | Modulation of p16(Ink4a): mLF and mVAT Senescent [2] | Modulation of p16(Ink4a): mLF and mVAT Proliferating [2] | Modulation of p16(Ink4a): SAMs [1] | survival rates vs control groups ([3]; OT-82: after 6 courses, 111 weeks of age, asenins: treated weeks 77-97, at 112 weeks of age) | FI of males compared to intact animals ([3]; treatment weeks 77-97 of age, measured at week 109)
1 | abrogated | NC(=O)c1cnc(NCCc2ccc(O)c(Cl)c2)nc1NCc1ccccc1 [AS1517499, reference compound] | without affecting viability | no change | no change |  |  | 
2 | abrogates | N#CCNC(=O)c1ccc(-c2ccnc(Nc3ccc(N4CCOCC4)cc3)n2)cc1 [CYT387, momelotinib, reference compound] |  | no change | no change |  |  | 
3 |  | CCOC(=O)c1sc(SCc2ccccc2)c2c1CN(c1ccc(OC)cc1)C/C2=N\O [Example A1.11, Ethyl 1-(benzylthio)-7-(hydroxyimino)-5-(4-methoxyphenyl)-4,5,6,7-tetrahydro-thieno[3,4-c]pyridine-3-carboxylate] |  | no change | no change | decrease | no statistical significance | statistically significant decrease
4 |  | CN(C)C(=N)N=C(N)N [Metformin] |  |  |  | decrease |  | 
